Assay results reported in ChEMBL document CHEMBL1159344, “Natural anti-HIV agents. Part IV. Anti-HIV constituents from Vatica cinerea” (J Nat Prod, 2003).
pIC50: −log10 of the molar value.

Assays:
[1] = tested on: Human immunodeficiency virus 1; experiment: Antiviral activity against HIV1 3B infected in human HOG.R5 assessed as inhibition of viral replication by microtiter assay; assay type: functional, organism-based; conditions: Human immunodeficiency virus 1, 3B
[2] = Selectivity index, ratio of CC50 for HOG.R5 cells to IC50 for HIV1 3B; assay type: functional
[3] = Cytotoxicity against human HOG.R5 cells; assay type: cell-based
[4] = Cytotoxicity against human HOG.R5 cells at 20 ug/ml; assay type: cell-based
[5] = tested on: Human immunodeficiency virus 1; experiment: Antiviral activity against HIV1 3B infected in human HOG.R5 assessed as inhibition of viral replication at 20 ug/ml by microtiter assay; assay type: functional; conditions: Human immunodeficiency virus 1, 3B
[6] = tested on: Human immunodeficiency virus 1; experiment: Antiviral activity against HIV1 3B infected in human HOG.R5 assessed as inhibition of viral replication at 2.5 ug/ml by microtiter assay; assay type: functional; conditions: Human immunodeficiency virus 1, 3B

Structure (SMILES) | pIC50 [1] | Ratio CC50/IC50 [2] | CC50 [3] | Activity [4] | inhibition at 20 µg/mL [5] | inhibition at 2.5 µg/mL [6]
C=C(C)[C@@H]1CC[C@]2(CO)CC[C@]3(C)[C@H](CC[C@@H]4[C@@]5(C)CC[C@H](O)C(C)(C)[C@@H]5CC[C@]43C)[C@@H]12 [BETULIN] | 4.86 | 1.4 | 19.5 µM | – | – | –
C=C(C)[C@@H]1CC[C@]2(C(=O)O)CC[C@]3(C)[C@H](CC[C@@H]4[C@@]5(C)CC[C@H](O)C(C)(C)[C@@H]5CC[C@]43C)[C@@H]12 [BETULINIC ACID] | 4.49 | 1.1 | 36 µM | – | – | –
CC(CCC[C@@H](C)[C@H]1CC[C@@]2(C)[C@@H]3CC[C@H]4C(C)(C)C(=O)CC[C@@]45C[C@@]35CC[C@]12C)C(=O)O (stereo partly specified) [DIHYDROSCHIZANDRONIC ACID] | 4.36 | – | 43.9 µM | Non-toxic | 0% | –
C/C(=C\CC[C@@H](C)[C@H]1CC[C@@]2(C)[C@@H]3CC[C@H]4C(C)(C)C(=O)CC[C@@]45C[C@@]35CC[C@]12C)C(=O)O [MANGIFERONIC ACID] | 4.36 | – | 44.1 µM | Non-toxic | 19% | –
C[C@H]1[C@H](C)CC[C@]2(C(=O)O)CC[C@]3(C)C(=CC[C@@H]4[C@@]5(C)CC[C@H](O)C(C)(C)[C@@H]5CC[C@]43C)[C@H]12 [URSOLIC ACID] | 4.83 | 4.9 | 15.8 µM | – | – | –
C=C(C/C=C/C(C)(C)O)[C@H]1CC[C@]2(C)[C@@H]1CC[C@@H]1[C@@]3(C)CC[C@H](O)C(C)(C)[C@@H]3CC[C@]12C | 4.65 | 1.3 | 30.3 µM | – | – | –
CC1=C2[C@@H]3[C@H](CC[C@H](C)[C@]2(O)CC1=O)C3(C)C | 4.06 | >1 | 85.5 µM | Non-toxic | – | –
CC(=O)/C=C/C[C@@H](C)[C@H]1CC[C@@]2(C)[C@@H]3CC[C@H]4C(C)(C)[C@@H](O)CC[C@@]45C[C@@]35CC[C@]12C | 5.23 | – | 12.7 µM | – | – | 21%
C/C(=C\CC[C@@H](C)[C@H]1CC[C@@]2(C)C3=C(CC[C@]12C)[C@@]1(C)CCC(=O)C(C)(C)[C@@H]1CC3)C(=O)O | 5.07 | 1.7 | 14.8 µM | – | – | –
C=C(CC[C@H](O)C(=C)C)[C@H]1CC[C@]2(C)[C@@H]1CC[C@@H]1[C@@]3(C)CC[C@H](O)C(C)(C)[C@@H]3CC[C@]12C | 5.21 | 2.3 | 14.3 µM | – | – | –
CC1(C)CC[C@]2(CO)CC[C@]3(C)C(=CC[C@@H]4[C@@]5(C)CC[C@H](O)C(C)(C)[C@@H]5CC[C@]43C)[C@@H]2C1 [ERYTHRODIOL] | 4.34 | >1 | 45.2 µM | Non-toxic | 33% | –
C=Cc1c(C)c2cc3nc(c4c5[nH]c(cc6nc(cc1[nH]2)C(C)=C6CC)c(C)c5C(=O)[C@@H]4C(=O)OC)[C@@H](CCC(=O)O)[C@@H]3C [PHEOPHORBIDE A] | 5.60 | >13 | 33.8 µM | – | – | –
CC(=O)/C=C/C[C@@H](C)[C@H]1CC[C@@]2(C)[C@@H]3CC[C@H]4C(C)(C)C(=O)CC[C@@]45C[C@@]35CC[C@]12C [VATICINONE] | 4.82 | 1.4 | 21.5 µM | – | – | –
C=C(C)[C@@H]1CC[C@]2(C(=O)O)CC[C@]3(C)[C@H](CC[C@@H]4[C@@]5(C)CCC(=O)C(C)(C)[C@@H]5CC[C@]43C)[C@@H]12 [BETUNOLIC ACID] | 4.67 | – | 105 µM | – | – | –
